According to patent US10604514B2, “6-(5-membered heteroaryl)isoquinolin-3-yl carboxamides and preparation and use thereof” (Samumed, LLC, priority 2017, dated 2020):
Read-outs that look alike come from different tables or passages of the source.

Assays:
[1] = tested on: LL29 cells (primary human fibroblasts derived from IPF patients), α-smooth muscle actin; assay: Inhibition of fibrotic process: αSMA in TGF-β1-treated primary human fibroblasts from IPF patients (LL29 cells); type: cell-based; settings: Homo sapiens, Fibroblast, 96 h; % αSMA-positive LL29 cells, TGF-β1 20 ng/mL, 4 days
Text: Representative compounds were screened using primary human fibroblasts (derived from IPF patients) treated with TGF-β1 to determine their ability to inhibit the fibrotic process.
Primary human fibroblasts derived from IPF patients (LL29 cells) [^1Xiaoqiu Liu, et. al., “Fibrotic Lung Fibroblasts Show Blunted Inhibition by cAMP Due to Deficient cAMP Response Element-Binding Protein Phosphorylation”, Journal of Pharmacology and Experimental Therapeutics (2005), 315(2), 678-687; ^2Watts, K. L., et. al., “RhoA signaling modulates cyclin D1 expression in human lung fibroblasts; implications for idiopathic pulmonary fibrosis”, Respiratory Research (2006), 7(1), 88] were obtained from American Type Culture Collection (ATCC) and expanded in F12 medium supplemented with 15% Fetal Bovine Serum and 1% Penicillin/Streptomycin.
Each compound was dissolved in DMSO as a 10 mM stock and used to prepare compound source plates. Serial dilution (1:2, 11-point dose-response curves from […] to 0.94 nM) and compound transfer was performed using the ECHO 550 (Labcyte, Sunnyvale, Calif.) into 384-well clear bottom assay plates (Greiner Bio-One) with appropriate DMSO backfill for a final DMSO concentration of 0.1%. LL29 cells were plated at 1,500 cells/well in 70 μL/well F12 medium supplemented with 1% Fetal Bovine Serum. TGF-β1 (Peprotech; 20 ng/mL) was added to the plates to induce fibrosis (ref. 1 and 2 above). Wells treated with TGF-31 and containing DMSO were used as positive control, and cells with only DMSO were negative control. Cells were incubated at 37° C. and 5% CO2 for 4 days. Following incubation for 4 days, SYTOX green nucleic acid stain (Life Technologies [Thermo Fisher Scientific]) was added to the wells at a final concentration of 1 μM and incubated at room temperature for 30 min. Cells were then fixed using 4% formaldehyde (Electron Microscopy Sciences), washed 3 times with PBS followed by blocking and permeabilization using 3% Bovine Serum Albumin (BSA; Sigma) and 0.3% Triton X-100 (Sigma) in PBS. Cells were then stained with antibody specific to α-smooth muscle actin (αSMA; Abcam) (ref. 1 and 2 above) in 3% Bovine Serum Albumin (BSA; Sigma) and 0.3% Triton X-100 (Sigma) in PBS, and incubated overnight at 4° C. Cells were then washed 3 times with PBS, followed by incubation with Alexa Flor-647 conjugated secondary antibody (Life Technologies [Thermo Fisher Scientific]) and DAPI in 3% Bovine Serum Albumin (BSA; Sigma) and 0.3% Triton X-100 (Sigma) in PBS at room temperature for 1 hour. Cells were then washed 3 times with PBS and plates were sealed for imaging. αSMA staining was imaged by excitation at 630 nm and emission at 665 nm and quantified using the Compartmental Analysis program on the CellInsight CX5 (Thermo Scientific). Dead or apoptotic cells were excluded from analysis based on positive SYTOX green staining. % of total cells positive for αSMA were counted in each well and normalized to the average of 11 wells treated with TGF-β1 on the same plate using Dotmatics' Studies Software.

[2] = tested on: Wnt activity (Sp5-Luc reporter in SW480 colon carcinoma cells); assay: Wnt activity screening assay (Sp5-Luc reporter gene assay); type: cell-based, human; settings: Homo sapiens; for EC50: Sp5-Luc reporter, SW480 cells, 36 to 48 hours
Text: The screening assay for Wnt activity is described as follows. Reporter cell lines can be generated by stably transducing cancer cell lines (e.g., colon cancer) or primary cells (e.g., IEC-6 intestinal cells) with a lentiviral construct that includes a Wnt-responsive promoter driving expression of the firefly luciferase gene.
SW480 colon carcinoma cells were transduced with a lentiviral vector expressing luciferase with a human Sp5 promoter consisting of a sequence of eight TCF/LEF binding sites. SW480 cells stably expressing the Sp5-Luc reporter gene and a hygromycin resistance gene were selected by treatment with 150 μg/mL of hygromycin for 7 days. These stably transduced SW480 cells were expanded in cell culture and used for all further screening activities. Each compound was dissolved in DMSO as a 10 mM stock and used to prepare compound source plates. Serial dilution (1:3, 10-point dose-response curves starting from 10 μM) and compound transfer was performed using the ECHO 550 (Labcyte, Sunnyvale, Calif.) into 384-well white solid bottom assay plates (Greiner Bio-One) with appropriate DMSO backfill for a final DMSO concentration of 0.1%. For Sp5-Luc reporter gene assays, the cells were plated at 4,000 cells/well in 384-well plates with a DMEM medium containing 1% fetal bovine serum, and 1% Penicillin-Streptomycin and incubated for 36 to 48 hours at 37° C. and 5% CO2. Following incubation, 15 μl of BriteLite Plus luminescence reagent (Perkin Elmer) was added to each well of the 384-well assay plates. The plates were placed on an orbital shaker for 2 min and then luminescence was quantified using the Envision (Perkin Elmer) plate reader. Readings were normalized to DMSO only treated cells, and normalized activities were utilized for EC50 calculations using the dose-response log (inhibitor) vs. response -variable slope (four parameters) nonlinear regression feature available in GraphPad Prism 5.0 (or Dotmatics).

IL-6 = IL-6 inhibition in LPS-stimulated human peripheral blood mononuclear cells (HTRF); type: cell-based; settings: Homo sapiens, PBMC; IL-6, LPS-stimulated huPBMCs, HTRF
Procedure: Fresh Normal PB MNC (Catalog # PB001, AllCells, Alameda, Calif.) were shipped overnight at 4° C. and resuspended in Roswell Park Memorial Institute (RPMI) 1640 Medium, with GlutaMAX Supplement (Catalog #61870127, ThermoFisher Scientific, Waltham, Mass.) supplemented with 1% Penicillin-Streptomycin (Catalog #151401633 ThermoFisher Scientific, Waltham, Mass.) and 1% fetal bovine serum (FBS) (Catalog #16140089, ThermoFisher Scientific, Waltham, Mass.) assay media.
Fresh normal human peripheral blood mononuclear cells (huPBMCs) were resuspended in 1% FBS-RPMI assay media with 1% Penicillin-Streptomycin 1% to a cell concentration of 1×10e6 cells/mL. Each compound was dissolved in DMSO (Catalog # D8418-100 ml, Sigma-Aldrich, St. Louis, Mo.) as a 10 mM stock and used to prepare compound source plates. Serial dilution (1:3, 10-point dose-response curves starting from 10 μM) and compound transfer was performed using the ECHO 550 (Labcyte, Sunnyvale, Calif.) into 384-well white Proxiplate-Plus assay plates (Catalog #6008289, PerkinElmer, Shelton, Conn.) with appropriate DMSO backfill for a final DMSO concentration of 0.25%. huPBMCs were plated at 5000 cells/well in the 384-well Proxiplate-Plus assay plates and incubated at 37° C.-5% CO2 for 2 hours. 50 ng/mL of Lipopolysaccharides from Escherichia coli 0111:B4 (Catalog # L5293-2 ML, Sigma-Aldrich, St. Louis, Mo.) was added after 2 hours and cells were incubated for another 22 hours at 37° C.-5% CO2. After 22 hour incubation, a mixture of anti-IL6 XL665 and anti-IL-6 Cryptate diluted in reconstitution buffer (Catalog #62IL6PEC, Cisbio Inc., Bedford, Mass.) was added to each well. Following incubation for 3 hours at room temperature, Homogeneous Time-Resolved Fluorescence (HTRF) was measured using the Envision (Perkin Elmer, Shelton, Conn.) at 665 nm and […]. The ratio of fluorescence at 665 nm to 620 nm was used as a readout for IL-6 quantification. All samples were processed in duplicate. Readings were normalized to DMSO treated cells and normalized activities were utilized for EC50 calculations. EC50 was determined using software generated by Dotmatics Limited (Windhill Bishops Stortford Herts, UK) using the Levenberg-Marquardt 4 parameter fitting procedure with finite different gradients.

[3] = tested on: Tau phosphorylation at Ser396 (pSer396), SH-SY5Y cells; assay: Tau phosphorylation at Ser396 (pSer396) in SH-SY5Y cells, ELISA/western blot; type: cell-based, human;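 also: cell lysates probed for reduced Tau pSer396 via ELISA (colorimetric) or western blot (chemiluminescence), both with one shared pSer396 antibody, EC50 for lowering phosphorylation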
[4] = tested on: SW480 colon carcinoma cells; assay: Cell viability assay (CellTiter-Glo) in SW480 cells; type: cell-based, human; settings: Homo sapiens, 96 h; cell viability, SW480 cells, four days, CellTiter-Glo;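 also: SW480 cells stably carrying an Sp5-luciferase TCF/LEF reporter, luminescent ATP signal as viability measure, DMSO-treated cells as control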
[5] = Homo sapiens, SH-SY5Y cells, overnight (16-18 h), read-out: pSer396 Tau EC50

SMILES | EC50 [1] [nM] | EC50 [2] [µM] | EC50 (IL-6) [nM] | EC50 [3, 5] [µM] | EC50 [4] [nM] | inhibition at 10 µM ([2]; SW480, read-out: percent inhibition at 10 μM) [%] | EC50 ([3]; Homo sapiens, SH-SY5Y, read-out: EC50 in the Tau assay) [µM] | EC50 ([3]; control DYRK1A inhibitors, printed '>10 M' (μ probably lost), read-out: EC50 in the Tau assay) [µM]
[2H]c1c(NC(=O)C2CCN(CC(C)C)CC2)ncc2ccc(-c3cnn(C)c3)cc12 [Compound 6, 1-Isobutyl-N-(6-(1-methyl-1H-pyrazol-4-yl)isoquinolin-3-yl-4-d)piperidine-4-carboxamide] | 132 | 0.82 | 967 | 0.103 | 1240 | – | – | –
[2H]c1nc(NC(=O)c2ccnc(N3CCN(CC)CC3)c2)cc2cc(-c3cnn(C)c3)ccc12 [Compound 8, 2-(4-Ethylpiperazin-1-yl)-N-(6-(1-methyl-1H-pyrazol-4-yl)isoquinolin-3-yl-1-d)isonicotinamide] | 95 | 0.028 | 932 | > 10 | 99 | – | – | –
[2H]c1nc(NC(=O)c2ccnc(N3CCN(C(C)C)CC3)c2)cc2cc(-c3cnn(C)c3)ccc12 [Compound 9, 2-(4-Isopropylpiperazin-1-yl)-N-(6-(1-methyl-1H-pyrazol-4-yl)isoquinolin-3-yl-1-d)isonicotinamide] | 157 | 0.036 | 1870 | > 10 | 106 | – | – | –
[2H]C1([2H])CCC([2H])([2H])N1c1cc(C(=O)Nc2cc3cc(-c4cnc(C)n4C)ccc3cn2)ccn1 [Compound 73, N-(6-(1,2-Dimethyl-1H-imidazol-5-yl)isoquinolin-3-yl)-2-(pyrrolidin-1-yl-2,2,5,5-d4)isonicotinamide] | 1710 | 2.06 | 2070 | > 10 | – | – | – | –
[2H]C1([2H])OC([2H])([2H])C([2H])([2H])N(c2cc(C(=O)Nc3cc4cc(-c5cnc(C)n5C)ccc4cn3)ccn2)C1([2H])[2H] [Compound 74, N-(6-(1,2-Dimethyl-1H-imidazol-5-yl)isoquinolin-3-yl)-2-(morpholino-d8) isonicotinamide] | 1250 | > 10 | 1130 | > 10 | 479 | 30.5 | – | –
[2H]C1([2H])N(c2cc(C(=O)Nc3cc4cc(-c5cncn5C)ccc4cn3)ccn2)C([2H])([2H])C([2H])([2H])C([2H])([2H])C1([2H])[2H] [Compound 75, N-(6-(1-Methyl-1H-imidazol-5-yl)isoquinolin-3-yl)-2-(piperidin-1-yl-d10) isonicotinamide] | 450 | 3.5 | 857 | > 10 | 443 | – | – | –
[2H]C1([2H])OC([2H])([2H])C([2H])([2H])N(c2cc(C(=O)Nc3cc4cc(-c5cncn5C)ccc4cn3)ccn2)C1([2H])[2H] [Compound 76, N-(6-(1-Methyl-1H-imidazol-5-yl)isoquinolin-3-yl)-2-(morpholino-d8) isonicotinamide] | 611 | 3.36 | 927 | > 10 | 462 | – | – | –
[2H]C1([2H])N(c2cc(C(=O)Nc3cc4cc(-c5cnc(C)n5C)ccc4cn3)ccn2)C([2H])([2H])C([2H])([2H])C1([2H])[2H] [Compound 77, N-(6-(1,2-Dimethyl-1H-imidazol-5-yl)isoquinolin-3-yl)-2-(pyrrolidin-1-yl-d8)isonicotinamide] | 2150 | 3.35 | 1940 | > 10 | – | – | – | –
[2H]C1([2H])N(c2cc(C(=O)Nc3cc4cc(-c5cncn5C)ccc4cn3)ccn2)C([2H])([2H])C([2H])([2H])C1([2H])[2H] [Compound 78, N-(6-(1-Methyl-1H-imidazol-5-yl)isoquinolin-3-yl)-2-(pyrrolidin-1-yl-d8) isonicotinamide] | 526 | 3.73 | 1050 | > 10 | 468 | – | – | –
[2H]C1([2H])CCC([2H])([2H])N1c1cc(C(=O)Nc2cc3cc(-c4cncn4C)ccc3cn2)ccn1 [Compound 79, N-(6-(1-methyl-1H-imidazol-5-yl)isoquinolin-3-yl)-2-(pyrrolidin-1-yl-2,2,5,5-d4)isonicotinamide] | 572 | 4.04 | 1340 | > 10 | 464 | – | – | –
Cc1nnc(-c2cc(F)c3cnc(NC(=O)C4CCC(NCC(F)F)CC4)cc3c2)s1 (stereo not shown) [Compound 204] | – | – | – | > 10 | – | – | – | –
COc1ccc2c(c1)[nH]c1c(C)nccc12 [Harmine, reference compound] | – | – | – | – | – | – | > 10 | –
CCN1/C(=C/C(C)=O)Sc2ccc(O)cc21 [Indy, reference compound] | – | – | – | – | – | – | – | > 10
